Legend:
[1] = system: HeLa cells; assay: Real-time IncuCyte scratch wound migration assay in HeLa cells; format: cell-based, human
Procedure: (§1) Cell proliferation was measured using the Click-iT EdU 488 assay (Sigma-Aldrich). Briefly, the cells were treated with indicated concentrations of compounds for 24 h with the last 4 h being in the presence of 10 μM EdU. The cells were fixed in 4% formaldehyde and stained for EdU incorporation, following the kit’s standard protocol. The cells were counterstained with Hoechst 33342 nucleic acid for 20 min. Fluorescent images of at least three fields of view per well were counted using ImageJ software. Real-time analysis of cell migration was performed using an IncuCyte ZOOM live cell imaging system (Essen BioScience) according to the manufacturer’s instructions. Briefly, the cells were seeded (1.2 × 10^4 cells/well for HeLa cells, 1.5 × 10^4 cells/well for RaVSMCs, and 1 × 10^4 cells/well) into ImageLock 96-well plates. After 36 h, the cells were pretreated overnight with indicated concentrations of compounds. The wells were scratched using a WoundMaker tool, and the media were replaced containing test compounds. Phase contrast images of cell migration into the wounded area were acquired hourly for 24 h. Relative wound confluence was calculated using the Cell Migration Image analysis module of the IncuCyte ZOOM software.

[2] = system: CCN1 protein; assay: Western blotting of CCN1 protein in VSMC lysates; format: cell-based; settings: indicated concentrations, 16 hr
Procedure: Figure 9 Compound 3.1 inhibits TEAD target gene expression, cell proliferation, and cell migration in RaVSMCs. RaVSMCs stably transduced with TEAD-NLUC (A) or transiently transfected with CCN1-LUC or CTGF-LUC were treated with the indicated concentrations of compound 3.1 for 6 hr. Cell conditioned media (A) or cell lysates (B−C) were assayed for nanoluciferase or fire-fly luciferase activity, respectively. VSMC were treated with 60 μM compound 3.1 for 6 h (n = 3). Total RNA was analyzed for mRNA levels of TEAD-target genes (D) or constitutive housekeeping genes (E) by qRT-PCR. VSMC were treated with indicated concentrations of compound 3.1 for 16 hr (n = 4). Total cell lysates were analyzed for CCN1 protein expression by Western blotting (F). RaVSMCs (G) or HuVSMC (H) were treated with indicated concentrations of compound 3.1 for 18 h followed by labeling in 10 μM EdU for a further 6 h (n = 4). RaVSMCs (I) or HuVSMC (J) were treated with indicated concentrations of compound 3.1 and cell migration quantified using IncuCyte real time migration assay (n = 4).
Extracted samples were separated by 4–12% SDS-polyacrylamide gel electrophoresis (Bio-Rad) and transferred to poly(vinylidene difluoride) membranes (GE Healthcare). Membranes were blocked in 5% low-fat milk in 10 mM Tris pH 7.6, 150 mM NaCl, 0.2% Tween. […]

[3] = target: T1, binding of endogenous YAP protein to recombinant GST-TEAD1 (Homo sapiens, UniProt P28347); assay: In vitro GST-TEAD1-YAP interaction (pull-down) assay; settings: 200 μM compound, HEK293 lysate, 18 h at 4 °C, Western blot
T1 construct: human TEAD1 (corresponding to residues 194–411); made in house; host or cells: SoluBL21 Escherichia coli (GST-TEAD1); HEK293 lysate (endogenous YAP)
T1 sequence (P28347 209-426): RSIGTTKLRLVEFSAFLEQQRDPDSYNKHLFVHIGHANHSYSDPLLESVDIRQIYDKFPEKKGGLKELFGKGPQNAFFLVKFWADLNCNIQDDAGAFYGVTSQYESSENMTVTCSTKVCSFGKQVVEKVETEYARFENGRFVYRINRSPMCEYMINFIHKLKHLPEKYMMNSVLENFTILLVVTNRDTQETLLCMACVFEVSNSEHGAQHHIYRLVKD
Text: We next tested the ability of these four compounds to inhibit the binding of endogenous YAP protein present in HEK293 whole cell lysate to recombinant glutathione S-transferase (GST)–TEAD1 protein immobilized on glutathione resin beads. […] Inhibition of YAP binding to TEAD1 in the presence of CPD3 was further confirmed using co-immunoprecipitation assays using mammalian cell lysates prepared from HeLa expressing myc-TEAD1 and GFP–YAP. […] We next set up a 96-well plate-based YAP–TEAD interaction assay to determine the IC50 of the inhibition of the YAP–TEAD complex by CPD3.
The DNA fragment encoding human TEAD1 (corresponding to residues 194–411) was amplified by polymerase chain reaction (PCR) and cloned into the BamH1 and EcoR1 sites of vector pGEX-6P1, in frame with the terminal GST tag. GST–TEAD1 fusion protein expression was induced in SoluBL21s Escherichia coli by culture at 25 °C in the presence of 0.2 mM IPTG for 18 h. […] Bound proteins were eluted by boiling in Laemmli sample buffer and YAP and GST–TEAD levels quantified by Western blotting with an anti-YAP antibody (Cell Signaling; #4912) and an anti-GST antibody (Cell Signaling; #5475S).

[4] = system: RaVSMCs; assay: EdU proliferation assay in RaVSMCs; format: cell-based, rat; settings: 18 h then 6 h 10 μM EdU
Procedure: as §1

[5] = system: TEAD-independent minimal TNT1 gene promoter; assay: Minimal TNT1 promoter-luciferase (minP-LUC) reporter in RaVSMCs; format: cell-based, rat; settings: 6 h
Procedure: Figure 3 Compound 3 inhibits TEAD target gene expression, cell proliferation, and cell migration. HeLa cells (A) and RaVSMCs (B) were transfected with CCN1-LUC, CTGF-LUC or minimal promoter-LUC (minP-LUC) reporter plasmids and treated with indicated concentrations of compound 3 for 6 h. Cell lysates were assayed for fire-fly luciferase activity (n = 3). HeLa cells (C) and RaVSMCs (D) were treated with indicated concentrations of compound 3 for 18 h, followed by a 6 h labeling with 10 μM EdU (n = 4). HeLa cells (E) and RaVSMCs (F) were treated with the indicated concentrations of compound 3 and migration quantified using a real-time IncuCyte scratch wound assay (n = 4). * = p < 0.05, ** = p < 0.01, *** = p < 0.001.
TNT1-minP reporter containing the Troponin-T minimal promoter was generated by digesting 8xGTIIC-luciferase plasmid (Addgene #34615) with Kpn1 and BglII to remove the TEAD elements, followed by blunt end re-ligation. A 2.177 kb fragment of the human CCN1 promoter containing two proximal TEAD elements (Hg19;chr1:86044316–chr1:86046493) was described previously[39] and cloned into pGL4-luciferase (Promega). The proximal promoter regions of the CTGF (Hg19;chr6:132272455–132272687) promoter, containing a consensus TEAD-binding element, was amplified by PCR from human genomic DNA and cloned into the Kpn1 and Nhe1 sites of pGL4-luciferase. […]

| SMILES | cell migration (scratch wound) [1] | CCN1 protein levels (Western blot) [2] | inhibition of binding of YAP protein to GST-TEAD1 [3] | cell proliferation (EdU incorporation) [4] | activity of TEAD-independent minimal TNT1 promoter (minP-LUC) [5] |
| --- | --- | --- | --- | --- | --- |
| Cc1ccc2c(c1)c1c3n2CCNC3CCC1 (stereo not drawn) [CPD3.1] | significantly inhibited HeLa cell migration at 40, 60, and 80 μM | inhibited the expression of CCN1 protein levels | – | – | – |
| Cc1ccc2c(c1)c1c3n2CCN(CC(O)CN2CCN(C(=O)c4ccco4)CC2)C3CCC1 (stereo not drawn) [CPD3] | dose-dependently inhibited | – | inhibit the binding of YAP protein | dose-dependently inhibited cell proliferation | not inhibited by any concentration |

Reference: PMC6701825, “Antiproliferative and Antimigratory Effects of a Novel YAP–TEAD Interaction Inhibitor Identified Using in Silico Molecular Docking” (Journal of Medicinal Chemistry, 2019)
